The values that follow come from PubChem BioAssay (NCI).

Test systems include DU-145 prostate; M14 melanoma; UACC-62 melanoma; K-562 leukemia; OVCAR-4 ovarian; CAKI-1 renal; KM12 colon; MOLT-4 leukemia.
Holding throughout (experiment): NCI-60 cell line screen, 48 h

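Cells were grown in 96-well plates and exposed to each compound for 48 hours at five concentrations; endpoints were interpolated linearly between bracketing concentrations, or set to the highest concentration if not reached. Here, GI50 denotes the concentration required for 50% inhibition of growth. Definition used: TGI = concentration required for complete inhibition of growth.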

On to `COc1ccc2[nH]c(-c3ccccc3)c(C=C(C#N)C#N)c2c1`, for which the GI50 is 6.52 µM in the experiment on DU-145 prostate; 2.29 µM in the experiment with M14 melanoma; 2.53 µM in the experiment on UACC-62 melanoma; 2.07 µM in the experiment on K-562 leukemia; 5.36 µM with OVCAR-4 ovarian; 4.13 µM in the experiment with CAKI-1 renal. Besides, the GI50 with KM12 colon was 3.45 µM; in the experiment on MOLT-4 leukemia, 3.74 µM. In addition, the TGI is > 100 µM in the experiment on DU-145 prostate; 44.5 µM in the experiment on M14 melanoma; 21.7 µM with UACC-62 melanoma; > 100 µM with K-562 leukemia; > 100 µM with OVCAR-4 ovarian; > 100 µM with CAKI-1 renal. In addition, the TGI in the experiment with KM12 colon and in the experiment on MOLT-4 leukemia was > 100 µM throughout.

As to `COc1cc(-c2nc3ccccc3[nH]2)ccc1OCC(=O)N=Nc1c(O)[nH]c2ccc(Cl)cc12`, the GI50 is 1.68 µM in the experiment with DU-145 prostate; 1.67 µM with M14 melanoma; 1.72 µM with UACC-62 melanoma; 0.454 µM in the experiment on K-562 leukemia; 2.02 µM in the experiment with OVCAR-4 ovarian; 1.81 µM in the experiment with CAKI-1 renal. The GI50 is 1.41 µM in the experiment with KM12 colon and 0.827 µM in the experiment with MOLT-4 leukemia. Besides, the TGI was 3.43 µM in the experiment with DU-145 prostate; 3.65 µM in the experiment with M14 melanoma; 3.18 µM with UACC-62 melanoma; 3.1 µM in the experiment with K-562 leukemia; 3.54 µM in the experiment with OVCAR-4 ovarian; 3.55 µM in the experiment with CAKI-1 renal. For the same molecule, the TGI was determined as 3.24 µM in the experiment on KM12 colon and 3.12 µM in the experiment with MOLT-4 leukemia.

In the case of `CCC(C(=O)c1cccs1)C(O)(C(F)(F)F)C(F)(F)F` (stereo unspecified), the TGI in the experiment with DU-145 prostate, with M14 melanoma, in the experiment on UACC-62 melanoma, with K-562 leukemia, in the experiment with OVCAR-4 ovarian and in the experiment on CAKI-1 renal was > 100 µM throughout. Besides, the TGI in the experiment with KM12 colon and in the experiment on MOLT-4 leukemia was > 100 µM in each case.

For `CC(N)(Cc1c[nH]c2ccccc12)C(=O)O` (stereo unspecified), the GI50 in the experiment on DU-145 prostate, in the experiment with M14 melanoma, with UACC-62 melanoma, with K-562 leukemia, with OVCAR-4 ovarian and with CAKI-1 renal was > 2500 µM in each case. Also, the GI50 in the experiment with KM12 colon and in the experiment with MOLT-4 leukemia was > 2500 µM each time. In addition, the TGI in the experiment with DU-145 prostate, in the experiment on M14 melanoma, in the experiment with UACC-62 melanoma, with K-562 leukemia, in the experiment with OVCAR-4 ovarian and in the experiment on CAKI-1 renal was > 2500 µM in each case. Besides, the TGI with KM12 colon and in the experiment on MOLT-4 leukemia was > 2500 µM throughout.

With `Clc1nc(Cl)c2ncn(C/C=C/Cn3cnc4c(Cl)nc(Cl)nc43)c2n1`, the GI50 was 15.2 µM in the experiment on DU-145 prostate; 21.2 µM in the experiment with M14 melanoma; 17.5 µM in the experiment with UACC-62 melanoma; 15.5 µM in the experiment with K-562 leukemia; 20 µM in the experiment on OVCAR-4 ovarian; 13.9 µM with CAKI-1 renal. In addition, the GI50 in the experiment with KM12 colon was 17.3 µM; in the experiment with MOLT-4 leukemia, 17 µM. For the same molecule, the TGI in the experiment with DU-145 prostate stood at 28.6 µM; in the experiment on M14 melanoma, 39.7 µM; with UACC-62 melanoma, 32.1 µM; with K-562 leukemia it was 55.8 µM; with OVCAR-4 ovarian, 34.8 µM; in the experiment with CAKI-1 renal, 28.1 µM. Moreover, the TGI in the experiment on KM12 colon amounted to 33.9 µM; in the experiment on MOLT-4 leukemia, 37.4 µM.

For the molecule `COc1ccc(S(=O)(=O)NC2=NCCN2C(=S)SN2CCn3c2nsc3=S)cc1OC`, the GI50 in the experiment on DU-145 prostate is 41 µM; in the experiment on M14 melanoma it was 20.4 µM; in the experiment on UACC-62 melanoma, 16.3 µM; in the experiment on K-562 leukemia, 27.4 µM; in the experiment with OVCAR-4 ovarian, 16 µM; with CAKI-1 renal, 16.5 µM. Moreover, the GI50 in the experiment on KM12 colon was 21.2 µM; in the experiment with MOLT-4 leukemia it was 27.1 µM. For the same molecule, the TGI is > 100 µM in the experiment with DU-145 prostate; 48.8 µM with M14 melanoma; 38 µM in the experiment with UACC-62 melanoma; > 100 µM in the experiment with K-562 leukemia; 34.8 µM with OVCAR-4 ovarian; 61.8 µM in the experiment with CAKI-1 renal. The figures for the TGI with KM12 colon and in the experiment on MOLT-4 leukemia were 52 µM and > 100 µM, respectively.

As to `COc1ccc2c(c1)C(=O)c1c-2c(OCCN(C)C)nc2cc(OC)ccc12`, the GI50 in the experiment with DU-145 prostate is 1.64 µM; with M14 melanoma, 1.51 µM; in the experiment with UACC-62 melanoma, 2.12 µM; with K-562 leukemia, 1.06 µM; in the experiment on OVCAR-4 ovarian it was 1.06 µM; in the experiment on CAKI-1 renal, 2.12 µM. Further, the values for the GI50 in the experiment on KM12 colon and with MOLT-4 leukemia were 0.759 µM and 0.32 µM, respectively. Besides, the TGI in the experiment with DU-145 prostate was 8.03 µM; with M14 melanoma it was 3.05 µM; in the experiment on UACC-62 melanoma, 8.51 µM; in the experiment on K-562 leukemia it was 2.82 µM; in the experiment with OVCAR-4 ovarian it was 2.9 µM; with CAKI-1 renal, 11.1 µM. In addition, the TGI worked out at 2.14 µM in the experiment on KM12 colon and 1.2 µM with MOLT-4 leukemia.

Turning to `C[n+]1c2cc(N)ccc2cc2ccc(N)cc21` (tested in a mixture with another compound), the GI50 was 0.584 µM with DU-145 prostate; 1.04 µM in the experiment on M14 melanoma; 0.435 µM in the experiment with UACC-62 melanoma; 0.2 µM in the experiment with K-562 leukemia; 0.646 µM in the experiment on OVCAR-4 ovarian; 0.429 µM in the experiment with CAKI-1 renal. Besides, the GI50 with KM12 colon is 0.21 µM; in the experiment with MOLT-4 leukemia, 0.209 µM. The TGI in the experiment with DU-145 prostate was 4.88 µM; in the experiment on M14 melanoma, 5.21 µM; with UACC-62 melanoma, 1.94 µM; in the experiment with K-562 leukemia, 1.25 µM; in the experiment on OVCAR-4 ovarian it was 2.68 µM; in the experiment with CAKI-1 renal, 3.54 µM. Also, the TGI in the experiment with KM12 colon came to 1.37 µM; in the experiment on MOLT-4 leukemia it was 0.746 µM.

In the case of `COc1ccc(N2CCN(CN3CCN(c4ccc(OC)cc4)C3)C2)cc1`, the GI50 with DU-145 prostate was 79.7 µM; with M14 melanoma it was > 100 µM; with UACC-62 melanoma, > 100 µM; in the experiment on K-562 leukemia it was 27.8 µM; with OVCAR-4 ovarian, > 100 µM; in the experiment on CAKI-1 renal, > 100 µM. Moreover, the results for the GI50 in the experiment with KM12 colon and in the experiment with MOLT-4 leukemia were > 100 µM and 12.3 µM, respectively. In addition, the TGI is > 100 µM in the experiment on DU-145 prostate; > 100 µM in the experiment with M14 melanoma; > 100 µM in the experiment with UACC-62 melanoma; 52.7 µM in the experiment on K-562 leukemia; > 100 µM in the experiment with OVCAR-4 ovarian; > 100 µM in the experiment on CAKI-1 renal. Further, the TGI in the experiment on KM12 colon was > 100 µM; in the experiment with MOLT-4 leukemia, 37.2 µM.
